Data: patent publication US20250270209A1 (INTERLINE THERAPEUTICS, INC., priority 2022, published 2025)

Experiments:
[1] = target: T1, wild type LRRK2 overexpressed in recombinant HEK-293T cells (Homo sapiens, UniProt Q5S007); experiment: pS935 LRRK2 Cell Assay (HTRF, phospho-LRRK2 Ser935); type: cell-based; details: LRRK2 Inhibition, Table 8, 2 hours compound incubation
T1 construct: host or cells: HEK293T (transient transfection with pCMV-LRRK2 WT plasmid)
In short: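 HEK-293T cells transiently transfected with wild-type LRRK2 for 24 h, plated overnight, then treated 2 h at 37° C with compound (top 10 μM, 3-fold, 9 doses, duplicates, 0.2% DMSO). Lysates probed overnight at 23° C by sandwich HTRF for pSer935; 665/615 nm ratio read.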

LRRK2 wild type enzyme = LRRK2 wild type enzyme (Homo sapiens, UniProt Q5S007); experiment: Biochemical Assay: LRRK2 TR-FRET (LanthaScreen) kinase assay with LRRKtide substrate; details: LRRK2 Inhibition, Table 8
In short: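 Human wild-type LRRK2 (3 nM) preincubated 15 min with compound (11-point, 3-fold, top 10 μM), then reacted 120 min at 23 °C with 400 nM LRRKtide and 25 μM ATP, pH 8.0. Stopped with EDTA; Tb-anti-pLRRKtide TR-FRET read after 30 min.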

T1 sequence (Q5S007 whole entry): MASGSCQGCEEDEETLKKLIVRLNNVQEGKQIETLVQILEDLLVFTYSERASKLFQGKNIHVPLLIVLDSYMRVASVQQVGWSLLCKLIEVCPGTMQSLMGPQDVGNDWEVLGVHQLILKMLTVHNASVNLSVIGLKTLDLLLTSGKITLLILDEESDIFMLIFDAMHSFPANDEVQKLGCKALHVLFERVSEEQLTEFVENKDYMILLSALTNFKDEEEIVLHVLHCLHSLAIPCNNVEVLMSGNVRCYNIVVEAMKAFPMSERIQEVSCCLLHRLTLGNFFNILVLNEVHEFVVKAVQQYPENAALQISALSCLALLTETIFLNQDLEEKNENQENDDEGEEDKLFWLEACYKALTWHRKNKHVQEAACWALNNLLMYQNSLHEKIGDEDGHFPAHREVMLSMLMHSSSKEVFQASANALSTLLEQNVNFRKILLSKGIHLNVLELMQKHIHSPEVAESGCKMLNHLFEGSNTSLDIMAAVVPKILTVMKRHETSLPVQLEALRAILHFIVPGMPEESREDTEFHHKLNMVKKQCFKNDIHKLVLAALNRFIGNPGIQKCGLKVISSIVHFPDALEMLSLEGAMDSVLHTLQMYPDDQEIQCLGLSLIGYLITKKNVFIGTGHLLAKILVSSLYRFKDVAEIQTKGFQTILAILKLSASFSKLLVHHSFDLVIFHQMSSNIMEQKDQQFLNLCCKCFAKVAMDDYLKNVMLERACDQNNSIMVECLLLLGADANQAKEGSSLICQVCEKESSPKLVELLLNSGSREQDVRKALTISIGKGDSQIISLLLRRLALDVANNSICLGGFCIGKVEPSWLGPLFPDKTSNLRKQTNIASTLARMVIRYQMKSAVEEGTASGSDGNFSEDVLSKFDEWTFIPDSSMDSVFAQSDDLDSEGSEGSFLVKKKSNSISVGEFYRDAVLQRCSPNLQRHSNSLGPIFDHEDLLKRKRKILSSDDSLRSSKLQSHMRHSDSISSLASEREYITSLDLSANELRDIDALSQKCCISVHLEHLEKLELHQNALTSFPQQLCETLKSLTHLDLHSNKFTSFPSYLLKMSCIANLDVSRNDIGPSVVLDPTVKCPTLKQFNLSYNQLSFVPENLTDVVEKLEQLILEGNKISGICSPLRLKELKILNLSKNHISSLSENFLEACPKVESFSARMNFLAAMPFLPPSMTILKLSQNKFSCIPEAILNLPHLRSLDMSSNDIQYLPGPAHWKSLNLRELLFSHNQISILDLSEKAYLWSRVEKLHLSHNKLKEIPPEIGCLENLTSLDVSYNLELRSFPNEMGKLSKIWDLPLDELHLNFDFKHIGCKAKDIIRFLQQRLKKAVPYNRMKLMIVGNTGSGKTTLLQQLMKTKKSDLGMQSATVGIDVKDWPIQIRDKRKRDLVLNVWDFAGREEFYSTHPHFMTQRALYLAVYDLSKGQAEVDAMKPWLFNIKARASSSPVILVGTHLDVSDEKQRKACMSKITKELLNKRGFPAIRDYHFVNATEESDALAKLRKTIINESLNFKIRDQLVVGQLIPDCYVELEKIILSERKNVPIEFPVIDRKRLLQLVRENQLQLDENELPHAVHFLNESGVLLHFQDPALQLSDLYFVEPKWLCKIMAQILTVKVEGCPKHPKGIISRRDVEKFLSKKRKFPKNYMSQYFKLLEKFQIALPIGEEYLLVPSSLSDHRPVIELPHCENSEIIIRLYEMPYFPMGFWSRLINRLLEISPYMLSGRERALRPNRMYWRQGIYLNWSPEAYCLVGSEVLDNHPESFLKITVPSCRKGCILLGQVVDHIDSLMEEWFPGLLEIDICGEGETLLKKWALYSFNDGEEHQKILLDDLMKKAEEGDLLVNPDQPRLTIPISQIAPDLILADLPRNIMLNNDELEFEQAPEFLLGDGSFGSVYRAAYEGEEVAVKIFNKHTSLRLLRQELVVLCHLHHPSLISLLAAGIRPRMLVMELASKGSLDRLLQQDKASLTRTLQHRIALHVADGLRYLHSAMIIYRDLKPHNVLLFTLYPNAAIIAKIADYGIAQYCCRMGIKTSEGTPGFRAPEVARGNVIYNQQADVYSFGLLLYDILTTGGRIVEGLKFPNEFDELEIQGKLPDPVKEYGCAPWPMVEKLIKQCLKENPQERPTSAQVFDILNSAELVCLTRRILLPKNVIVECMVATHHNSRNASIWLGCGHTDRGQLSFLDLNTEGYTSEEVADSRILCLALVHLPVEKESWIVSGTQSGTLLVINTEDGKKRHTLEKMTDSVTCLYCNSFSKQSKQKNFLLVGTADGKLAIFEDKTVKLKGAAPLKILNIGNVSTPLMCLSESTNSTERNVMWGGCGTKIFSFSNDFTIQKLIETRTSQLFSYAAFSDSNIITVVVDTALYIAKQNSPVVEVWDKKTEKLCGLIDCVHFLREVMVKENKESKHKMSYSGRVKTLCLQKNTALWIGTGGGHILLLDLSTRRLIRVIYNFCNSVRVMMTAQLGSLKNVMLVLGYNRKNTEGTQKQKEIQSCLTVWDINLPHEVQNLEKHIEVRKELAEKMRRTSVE
LRRK2 wild type enzyme, sequence (Q5S007 whole entry): as above

Compound	IC50 [1]	IC50 (LRRK2 wild type enzyme)
C[C@@H]1C[C@H](n2c(CC(=O)Nc3nccc(C(F)(F)F)n3)nc3cnc4ccc(C#N)cc4c32)CCO1 [Compound 361, N-[4-(trifluoromethyl)-2-pyrimidinyl]{3-[(2R,4R)-2-methyltetrahydro-2H-pyran-4-yl]-12-cyano-3,5,8-triazatricyclo[7.4.0.0^2,6]trideca-1(9),2(6),4,7,10,12-hexaen-4-yl}acetamide]	4.23 nM	0.454 nM
C[C@@H]1C[C@H](n2c(CC(=O)NC3CCOc4cccnc43)nc3cnc4ccc(Cl)cc4c32)CCO1 (stereo partly drawn) [Compound 362, N-(3,4-dihydro-2H-1-oxa-5-azanaphth-4-yl){3-[(2R,4R)-2-methyltetrahydro-2H-pyran-4-yl]-12-chloro-3,5,8-triazatricyclo[7.4.0.0^2,6]trideca-1(9),2(6),4,7,10,12-hexaen-4-yl}acetamide]	10.5 nM	0.553 nM
C[C@@H]1C[C@H](n2c(CC(=O)NC3(c4ccccn4)CC3)nc3cnc4ccc(C#N)cc4c32)CCO1 [Compound 363, N-[1-(2-pyridyl)cyclopropyl]{3-[(2R,4R)-2-methyltetrahydro-2H-pyran-4-yl]-12-cyano-3,5,8-triazatricyclo[7.4.0.0^2,6]trideca-1,4,6,8,10,12-hexaen-4-yl}acetamide]	2.05 nM	0.533 nM
Cc1nc2ccc(C#N)cc2c2c1nc(CC(=O)NCC1CC1)n2[C@@H]1CCO[C@H](C)C1 [Compound 364, N-cyclopropylmethyl{3-[(2R,4R)-2-methyltetrahydro-2H-pyran-4-yl]-12-cyano-7-methyl-3,5,8-triazatricyclo[7.4.0.0^2,6]trideca-1(9),2(6),4,7,10,12-hexaen-4-yl}acetamide]	6770 nM	186 nM
C[C@@H]1C[C@H](n2c(CC(=O)N[C@@H]3C[C@H]3c3cccnc3)nc3cnc4ccc(C#N)cc4c32)CCO1 [Compound 365, N-[(1R,2S)-2-(3-pyridyl)cyclopropyl]{3-[(2R,4R)-2-methyltetrahydro-2H-pyran-4-yl]-12-cyano-3,5,8-triazatricyclo[7.4.0.0^2,6]trideca-1(13),2(6),4,7,9,11-hexaen-4-yl}acetamide]	23.3 nM	0.536 nM
C[C@@H]1C[C@H](n2c(CC(=O)NCCc3ccccn3)nc3cnc4ccc(C#N)cc4c32)CCO1 [Compound 366, N-[2-(2-pyridyl)ethyl]{3-[(2R,4R)-2-methyltetrahydro-2H-pyran-4-yl]-12-cyano-3,5,8-triazatricyclo[7.4.0.0^2,6]trideca-1,4,6,8,10,12-hexaen-4-yl}acetamide]	28.4 nM	0.587 nM
C[C@@H]1C[C@H](n2c(CC(=O)N[C@H]3C[C@@H](OCc4ccn(C)n4)C3)nc3cnc4ccc(C#N)cc4c32)CCO1 [Compound 367, N-{(1s,3s)-3-[(1-methyl-3-pyrazolyl)methoxy]cyclobutyl}{3-[(2R,4R)-2-methyltetrahydro-2H-pyran-4-yl]-12-cyano-3,5,8-triazatricyclo[7.4.0.0^2,6]trideca-1,4,6,8,10,12-hexaen-4-yl}acetamide]	94.8 nM	0.597 nM
Cc1nc(NC(=O)Cc2nc3cnc4ccc(C#N)cc4c3n2[C@@H]2CCO[C@H](C)C2)no1 [Compound 368, N-(5-methyl-1,2,4-oxadiazol-3-yl){3-[(2R,4R)-2-methyltetrahydro-2H-pyran-4-yl]-12-cyano-3,5,8-triazatricyclo[7.4.0.0^2,6]trideca-1(9),2(6),4,7,10,12-hexaen-4-yl}acetamide]	16.5 nM	0.509 nM
CC(C(=O)NCC1CC1)c1nc2cnc3ccc(C#N)cc3c2n1[C@@H]1CCO[C@H](C)C1 (stereo partly drawn) [Compound 369, N-cyclopropylmethyl2-{3-[(2R,4R)-2-methyltetrahydro-2H-pyran-4-yl]-12-cyano-3,5,8-triazatricyclo[7.4.0.0^2,6]trideca-1(13),2(6),4,7,9,11-hexaen-4-yl}propionamide]	801 nM	13.8 nM
C[C@@H]1C[C@H](n2c(CC(=O)NCc3cccc(C(F)(F)F)n3)nc3cnc4ccc(C#N)cc4c32)CCO1 [Compound 370, N-{[6-(trifluoromethyl)-2-pyridyl]methyl}{3-[(2R,4R)-2-methyltetrahydro-2H-pyran-4-yl]-12-cyano-3,5,8-triazatricyclo[7.4.0.0^2,6]trideca-1(9),2(6),4,7,10,12-hexaen-4-yl}acetamide]	2.74 nM	0.295 nM
C[C@@H]1C[C@H](n2c(CC(=O)Nc3cnccn3)nc3cnc4ccc(Cl)cc4c32)CCO1 [Compound 371, N-2-pyrazinyl{3-[(2R,4R)-2-methyltetrahydro-2H-pyran-4-yl]-12-chloro-3,5,8-triazatricyclo[7.4.0.0^2,6]trideca-1(9),2(6),4,7,10,12-hexaen-4-yl}acetamide]	5 nM	1.13 nM
